Active and inactive are the calls of the source. No cut-off for these calls is given here.
Key:
[1] = target: T1, Tyrosine-protein phosphatase non-receptor type 1 (Homo sapiens, UniProt P18031); assay: Inhibition of wild type N-terminal 6 his tagged human PTP1B (1 to 400 residues) expressed in Escherichia coli (Rosetta, DE3) using p-NPP as substrate preincubated for 10 mins followed by substrate addition and measured after 20 mins by absorbance based analysis
T1 sequence (P18031 whole entry): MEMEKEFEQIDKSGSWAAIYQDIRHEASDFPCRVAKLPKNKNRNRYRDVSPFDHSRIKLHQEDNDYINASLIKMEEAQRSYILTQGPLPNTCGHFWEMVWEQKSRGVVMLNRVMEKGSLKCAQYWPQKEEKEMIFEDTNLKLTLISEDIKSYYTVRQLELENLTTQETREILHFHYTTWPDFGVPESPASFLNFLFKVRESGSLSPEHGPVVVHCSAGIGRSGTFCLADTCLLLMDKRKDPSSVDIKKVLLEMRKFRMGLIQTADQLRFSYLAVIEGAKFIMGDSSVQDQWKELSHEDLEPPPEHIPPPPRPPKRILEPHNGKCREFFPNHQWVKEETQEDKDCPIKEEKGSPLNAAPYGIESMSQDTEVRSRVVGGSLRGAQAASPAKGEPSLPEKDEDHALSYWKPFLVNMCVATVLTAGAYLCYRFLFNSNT

[2] = target: T2, Tyrosine-protein phosphatase non-receptor type 1 (Homo sapiens) (UniProt P18031); assay: Binding affinity to wild type N-terminal 6 his tagged human PTP1B (1 to 400 residues) expressed in Escherichia coli (Rosetta, DE3) assessed as affinity constant by fluorescence based analysis
T2 sequence (whole entry): T1 sequence (P18031 whole entry)

[3] = Acute toxicity in Swiss Webster mouse assessed as animal death at 30 to 300 mg/kg, po and measured for 2 hrs; type: organism-based; conditions: in vivo, dose 30-300 mg/kg
[4] = Acute toxicity in Swiss Webster mouse assessed as sedation at 30 to 300 mg/kg, po and measured for 2 hrs; type: organism-based; conditions: in vivo, dose 30-300 mg/kg
[5] = Acute toxicity in Swiss Webster mouse assessed as loss of motor activity at 30 to 300 mg/kg, po and measured for 2 hrs; type: organism-based; conditions: in vivo, dose 30-300 mg/kg
[6] = Acute toxicity in Swiss Webster mouse assessed as hyperactivity at 30 to 300 mg/kg, po and measured for 2 hrs; type: organism-based; conditions: in vivo, dose 30-300 mg/kg
[7] = Acute toxicity in Swiss Webster mouse assessed as ataxia at 30 to 300 mg/kg, po and measured for 2 hrs; type: organism-based; conditions: in vivo, dose 30-300 mg/kg
[8] = Acute toxicity in Swiss Webster mouse assessed as change in heart rate at 30 to 300 mg/kg, po and measured for 2 hrs; type: organism-based; conditions: in vivo, dose 30-300 mg/kg
[9] = Acute toxicity in Swiss Webster mouse assessed as animal death at 30 to 300 mg/kg, po and measured after 14 days; type: organism-based; conditions: in vivo, 336 h, dose 30-300 mg/kg, time 14 day
[10] = Acute toxicity in Swiss Webster mouse assessed as effect on body weight loss at 30 to 300 mg/kg, po and measured after 14 days; type: organism-based; conditions: in vivo, 336 h, dose 30-300 mg/kg, time 14 day
[11] = Acute toxicity in Swiss Webster mouse assessed as macroscopic damage in internal organs at 30 to 300 mg/kg, po and measured after 14 days; type: organism-based; conditions: in vivo, 336 h, dose 30-300 mg/kg, time 14 day
[12] = Acute toxicity in Swiss Webster mouse assessed as lethal dose; conditions: in vivo
Mus musculus [13] = species on record: Mus musculus; assay: Hypoglycemic activity in Swiss Webster mouse assessed as reduction in blood glucose level preincubated for 30 mins followed by insulin dose and measured at upto 120 mins by insulin tolerance test; type: functional, organism-based; conditions: time <= 150.0 min
Mus musculus [14] = assay: Hypoglycemic activity in Swiss Webster mouse assessed as reduction in blood glucose level at 3 to 30 mg/kg preincubated for 30 mins followed by insulin dose and measured after 60 to 120 mins by insulin tolerance test; type: functional, organism-based; conditions: dose 3-30 mg/kg, time 90-150 min
[15] = Acute toxicity in Swiss Webster mouse assessed as animal death at 10 to 500 mg/kg, po and measured for 2 hrs; type: organism-based; conditions: in vivo, dose 10-500 mg/kg
[16] = Acute toxicity in Swiss Webster mouse assessed as sedation at 10 to 500 mg/kg, po and measured for 2 hrs; type: organism-based; conditions: in vivo, dose 10-500 mg/kg
[17] = Acute toxicity in Swiss Webster mouse assessed as loss of motor activity at 10 to 500 mg/kg, po and measured for 2 hrs; type: organism-based; conditions: in vivo, dose 10-500 mg/kg
[18] = Acute toxicity in Swiss Webster mouse assessed as hyperactivity at 10 to 500 mg/kg, po and measured for 2 hrs; type: organism-based; conditions: in vivo, dose 10-500 mg/kg
[19] = Acute toxicity in Swiss Webster mouse assessed as ataxia at 10 to 500 mg/kg, po and measured for 2 hrs; type: organism-based; conditions: in vivo, dose 10-500 mg/kg
[20] = Acute toxicity in Swiss Webster mouse assessed as change in heart rate at 10 to 500 mg/kg, po and measured for 2 hrs; type: organism-based; conditions: in vivo, dose 10-500 mg/kg
[21] = Acute toxicity in Swiss Webster mouse assessed as animal death at 10 to 500 mg/kg, po and measured after 14 days; type: organism-based; conditions: in vivo, 336 h, dose 10-500 mg/kg, time 14 day
[22] = Acute toxicity in Swiss Webster mouse assessed as effect on body weight loss at 10 to 500 mg/kg, po and measured after 14 days; type: organism-based; conditions: in vivo, 336 h, dose 10-500 mg/kg, time 14 day
[23] = Acute toxicity in Swiss Webster mouse assessed as macroscopic damage in internal organs at 10 to 500 mg/kg, po and measured after 14 days; type: organism-based; conditions: in vivo, 336 h, dose 10-500 mg/kg, time 14 day

For `CC(=O)O[C@H]1[C@@H]2C(=O)c3c(C)cc(O)c4c3[C@@]1(COC4=O)C1=C2c2c(C)cc(O)c3c(=O)n(-c4ccc([N+](=O)[O-])cc4)cc(c23)C1=O`, the IC50 [1] was 3.1 µM, the Ka [2] was 2.9 10^5/M and the Activity [3] was “Non-Toxic”. The Activity [4] was “Non-Toxic”, the Activity [5] was “Non-Toxic” and the Activity [6] was “Non-Toxic”. For the same compound, the Activity [7] was “Non-Toxic”, the Activity [8] was “Non-Toxic” and the Activity [9] was “Non-Toxic”. The Activity [10] was “Non-Toxic”, the Activity [11] was “Non-Toxic” and the LD50 [12] was 300 mg/kg. The Activity (Mus musculus [13]) was “Dose-Dependent Effect” and the Activity (Mus musculus [14]) was “Active”.

With `CO[C@@]12c3c(C)cc(O)c4c(=O)occ(c34)C(=O)[C@@H]1[C@]13COC(=O)c4c(O)cc(C)c(c41)C(=O)[C@H]2[C@@H]3OC(C)=O` the IC50 [1] was 35.6 µM, the Ka [2] was 2 10^5/M and the Activity [15] was “Non-Toxic”. The Activity [16] was “Non-Toxic”, the Activity [17] was “Non-Toxic” and the Activity [18] was “Non-Toxic”. For the same compound, the Activity [19] was “Non-Toxic”, the Activity [20] was “Non-Toxic” and the Activity [21] was “Non-Toxic”. For the same compound, the Activity [22] was “Non-Toxic”, the Activity [23] was “Non-Toxic” and the LD50 [12] was 500 mg/kg.
